No end group written: not given here.
Legend:
[1] = target: T1, Streptavidin (Streptomyces avidinii, UniProt P22629); test: Streptavidin-APC staining of HEK 293T cells transfected with tag constructs, flow cytometry; assay type: cell-based; conditions: 48 hrs post-transfection
Procedure: A. Schematic diagram of the amino acid sequences of the six Streptavidin-binding tags on a CD8 stalk. These constructs co-express the green fluorescent protein (eGFP) via an internal ribosome entry sequence (IRES) downstream of the first open reading frames. B. The constructs were transfected into HEK 293T cells and stained with Streptavidin-APC 48 hours post-transfection and analysed by flow-cytometry. Binding of streptavidin (y-axis) is plotted against eGFP signal.
FIG. 3: Transfection of 293T cells with StreptagII, Flankedccstreptag and ccstretag epitopes in three different formats shown in FIG. 2. 293T cells were also transfected with an irrelevant protein (HA1-TCR beta) co-expressed with eGFP as a negative control. […] Tags were expressed on either a CD8 stalk, a GPI anchor (×1) with one open reading frame or with a GPI anchor (×2) with two copies of the open reading frame. 293T cells transfected with the tagging proteins were stained with Streptavidin APC. The cells were all analysed by flow-cytometry and Streptavidin APC binding (y-axis) is plotted against eGFP signal (x-axis).
An expression construct coding for a signal peptide attached to the amino terminal of theses tags was generated. In addition, the carboxy terminal of these peptide tags was attached to the CD8 stalk, CD8 transmembrane domain and a short part of the CD8 endodomain sufficient to anchor the protein to the membrane. To test their binding to streptavidin, HEK 293T cells were transfected with each construct individually and 48 hrs post-transfection cells were harvested and stained with Streptavidin conjugated to the fluorophore Allophycocyanin (APC) (FIG. 1B).
The optimal format to express these tags on the cell surface for streptavidin binding was then investigated. Additional plasmids were constructed where these tags are expressed on a GPI anchor with one copy of the tags' open reading frames and GPI anchor with two copies of the open reading frames separated by a CD8-based linker (the annotated amino acid sequences of these constructs are depicted in FIG. 2). The binding of these tags was compared with that of the original constructs where the epitopes were placed on a CD8 stalk.
To test their binding to Streptavidin, HEK 293T cells were transiently transfected with the constructs and stained 48 hrs post-transfection with Streptavidin-APC (FIG. 3).

[2] = tested on: NT-293T cells; assay type: cell-based, human
[3] = tested on: K562 cells; test: Sorting of K562 cells expressing flankedccstreptag, RQR8, GST or H6 tags with their respective beads; assay type: cell-based; conditions: for eGFP positive cells in the flow-through fraction / eGFP positive cells in the sorted fraction: K562, respective beads, 12 days post sorting; for eGFP positive cells, pre-sorted population: retrovirally transduced K562 before sorting
Procedure: K562 cells were retrovirally transduced with the four constructs individually. Subsequently cell populations were sorted with their respective beads as per manufacturer protocol. Protein-A Dynabeads were previously incubated with clinical grade human-rituximab over-night at 4 C and washed 5× with PBS to remove any unbound rituximab before adding it to the cells. Sorted fractions were collected as well as the flow through for all sorting. Fractions were assessed for positive cells based on eGFP expression by flow cytometery with a blank channel to account for auto fluorescence from dead cells.
The efficiencies of the different tags (GST, RQR8 and His-tag) at purifying lentiviral particles from cellular media, was tested using the approach previously described for flankcedccstreptag (see Example 2), i.e. by sorting K562 cells expressing these tags on their surface. K562 cells were retrovirally transduced with flankedccstreptag, GST, RQR8 and H6 epitopes separately (FIG. 8, Pre-sorted column). Transduced cells represented a minority of the total population based on eGFP expression; therefore cells were not mixed with NT-K562 cells. Populations expressing flankedccstreptag at 10.5%, RQR8 at 9.75%, GST at 22.7% and H6 […] were thereafter sorted with Streptavidin Dynabeads, human rituximab previously incubated with protein-A bead, Glutathione magnetic beads and His-tag Dynabeads respectively.
Collected fractions were assessed for positive cells 12 days-post sorting. […] Moreover, K562 cells expressing GST epitope were successfully purified from pre-sorting population with 91% eGFP positive cells present in the sorted fraction. […] Conversely, K562 expressing H6 sorting was less successful as only 26.1% of cells in the sorted fraction were eGFP positive while 71.1% of cells were eGFP negative. Additionally, 59.2% eGFP positive cells were in the flow-through. The GST and RQR8 tags therefore show the best activity with regard to purifying viral particles from cellular supernatant in the same manner as flankcedccstreptag epitope.

[4] = target: T1, Streptavidin; conditions: biotin mimicking peptide binding streptavidin; read-out: affinity; cited from earlier work
[5] = tested on: K562 cells; test: Sorting of K562 cells expressing Flankedccstreptag formats with streptavidin beads; assay type: cell-based
Procedure: Transduced K562 were close to 100% positive for the transgenes after transduction. Positive cells were mixed with non-transduced (NT) K562 pre-sorting. The mixture was incubated with both streptavidin dynabeads (Life technologies, Cat. No. 65601) and streptavidin-microbeads (Miltenyi, Cat. No. 130-048-101) as per manufacturer protocol. The sorted cellular fraction was collected as well as flow-through fraction for both protocols. Sorting was assessed by streptavidin-APC staining and for eGFP positive cell populations 9 days post sorting by flow cytometry.
To establish that the two versions of Flankedccstreptag are able to purify lentivirus from cellular supernatant, an initial experiment was carried out involving sorting of K562 cells expressing these tags on their surface using streptavidin beads. We reasoned that if the tags could attach to a streptavidin matrix while expressed on cells with sufficient stability to allow sorting of expressing cells, they should be suitable for lentiviral capture too.
K562 cells were retrovirally transduced to express the two tags and transduction efficiencies were determined by eGFP expression using flow cytometry (FIG. 4 Transduced K562 plot). Subsequently, transduced cells were mixed with non-transduced K562 to assess the efficiency of sorting using two streptavidin-beads sourced from Life technologies (Dynabeads) and Miltenyi (Microbeads). […]

T1 sequence (P22629 25-183): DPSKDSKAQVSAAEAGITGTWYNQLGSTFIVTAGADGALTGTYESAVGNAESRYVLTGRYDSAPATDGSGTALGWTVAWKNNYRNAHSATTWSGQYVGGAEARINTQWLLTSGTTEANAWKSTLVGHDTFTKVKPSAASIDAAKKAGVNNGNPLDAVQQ

## Flankedccstreptag: biotin mimic tag AECHPQGPPCIEGRK (SEQ ID NO: 2) expressed at the cell surface as tagging protein (Biotin mimicking peptide, flankedccstreptag)
[1]; tag on CD8 stalk
  binding to Streptavidin-APC: successfully bound
[1]; tag on GPI anchor, two open reading frames (x2)
  binding to Streptavidin-APC: higher binding efficiency than StreptagII and ccstreptag
[2]
  transduction efficiency, neat supernatant: high transduction efficiencies
[3]
  eGFP positive cells in the flow-through fraction: absence of eGFP positive cells
  eGFP positive cells in the sorted fraction: 93.6%
  eGFP positive cells, pre-sorted population: 10.5%

## RQR8: tag with rituximab-binding and Qbend10 epitopes on CD8 stalk, SEQ ID NO: 21
[2]
  transduction efficiency, neat supernatant: high transduction efficiencies
[3]
  eGFP positive cells in the flow-through fraction: absence of eGFP positive cells
  eGFP positive cells in the sorted fraction: 89.4%
  eGFP positive cells, pre-sorted population: 9.75%

## biotin mimicking peptide DVEAWLDERVPLVET (SEQ ID NO: 35) (Biotin mimicking peptide, long nanotag)
[1]; tag on CD8 stalk
  binding to Streptavidin-APC: did not exhibit any binding
[4]
  Kd: 3.6 nM

## biotin mimicking peptide DVEAWLGAR (SEQ ID NO: 36) (Biotin mimicking peptide, short nanotag)
[1]; tag on CD8 stalk
  binding to Streptavidin-APC: did not exhibit any binding
[4]
  Kd: 17 nM

## biotin mimicking peptide WSHPQFEK (SEQ ID NO: 1) [streptagll]
[1]; tag on CD8 stalk
  binding to Streptavidin-APC: successfully bound
[4]
  Kd: 72000 nM

## disulphide constrained biotin mimicking peptide CHPQGPPC (SEQ ID NO: 3) [ccstreptag]
[1]; tag on CD8 stalk
  binding to Streptavidin-APC: successfully bound
[4]
  Kd: 230 nM

## flankedccstreptag-d8-x2-GPI: two Flankedccstreptag copies separated by CD8-based linker (SEQ ID NO: 5) on a GPI anchor (ECHPQGPPCIEGRKSSGGGGSPAPRPPTPAPTIASECHPQGPPCIEGRKS; cysteine pairing not given here; also: on a GPI anchor, small tags and cut ends left off)
[5]; streptavidin microbeads (Miltenyi)
  sorting of tag-expressing K562 cells from mixture with NT K562: successful
[5]; streptavidin-dynabeads (Life technologies), eGFP
  sorting of tag-expressing K562 cells from mixture with NT K562: successfully sorted
